Assay results reported in ChEMBL document CHEMBL3580564, “Semisynthetic Studies on and Biological Evaluation of N-Methyllaurotetanine Analogues as Ligands for 5-HT Receptors” (J Nat Prod, 2015).

Tests used:
[1] = molecular target: Mu-type opioid receptor (Homo sapiens) (UniProt P35372); assay: Displacement of [3H]DAMGO from human recombinant MOR expressed in HEK cell membranes by radioligand binding assay; conditions: HEK293, concentration not given here
[2] = molecular target: Translocator protein (Rattus norvegicus) (UniProt P16257); assay: Displacement of [3H]PK11195 from rat brain PBR by radioligand binding assay; conditions: concentration not given here
[3] = molecular target: Sigma non-opioid intracellular receptor 1 (Cavia porcellus) (UniProt Q60492); assay: Binding affinity to guinea pig sigma1 receptor by radioligand binding assay; conditions: concentration not given here
Sigma 2 receptor = assay: Displacement of [3H]DTG from human recombinant sigma2 receptor by radioligand binding assay; conditions: concentration not given here
[4] = molecular target: 5-hydroxytryptamine receptor 2C (Homo sapiens, UniProt P28335); assay: Displacement of [3H]mesulergine from human recombinant 5-HT2C receptor expressed in Flp-IN HEK cell membranes by radioligand binding assay; parameters: species or system HEK293
[5] = molecular target: Alpha-1B adrenergic receptor (Homo sapiens, UniProt P35368); assay: Displacement of [3H]prazosin from human recombinant adrenergic alpha1B receptor expressed in HEKT cell membranes by radioligand binding assay
[6] = molecular target: Alpha-2C adrenergic receptor (Homo sapiens, UniProt P18825); assay: Displacement of [3H]rauwolscine from human recombinant adrenergic alpha2C receptor expressed in MDCK cell membranes by radioligand binding assay
[7] = molecular target: Beta-2 adrenergic receptor (Homo sapiens, UniProt P07550); assay: Displacement of [3H]CGP12177 from human recombinant adrenergic beta2 receptor expressed in CHO Flp-In cell membranes by radioligand binding assay
D(3) dopamine receptor = D(3) dopamine receptor (Homo sapiens, UniProt P35462); assay: Displacement of [3H]N-methylspiperone from human recombinant dopamine D3 receptor expressed in HEKT cell membranes by radioligand binding assay
[8] = molecular target: Sodium-dependent dopamine transporter (Homo sapiens, UniProt Q01959); assay: Displacement of [3H]WIN35428 from human recombinant DAT expressed in HEK cell membranes by radioligand binding assay; parameters: species or system HEK293
[9] = molecular target: Sodium-dependent noradrenaline transporter (Homo sapiens, UniProt P23975); assay: Displacement of [3H]nisoxetine from human recombinant NET expressed in HEK cell membranes by radioligand binding assay; parameters: species or system HEK293
[10] = molecular target: Sodium-dependent serotonin transporter (Homo sapiens, UniProt P31645); assay: Displacement of [3H]citalopram from human recombinant SERT expressed in HEK cell membranes by radioligand binding assay; parameters: species or system HEK293
Homo sapiens = species: Homo sapiens; assay: Selectivity index, ratio of Ki for human recombinant 5-HT1A receptor to Ki for human recombinant 5-HT7 receptor
[11] = molecular target: 5-hydroxytryptamine receptor 1E (Homo sapiens) (UniProt P28566); assay: Displacement of [3H]5-HT from human recombinant 5-HT1E receptor expressed in HEK cell membranes by radioligand binding assay; conditions: HEK293, concentration not given here
D(1A) dopamine receptor = D(1A) dopamine receptor (Homo sapiens, UniProt P21728); assay: Displacement of [3H]SCH23390 from human recombinant dopamine D1 receptor expressed in HEKT cell membranes by radioligand binding assay
[12] = molecular target: 5-hydroxytryptamine receptor 7 (Homo sapiens, UniProt P34969); assay: Displacement of [3H]LSD from human recombinant 5-HT7 receptor expressed in HEK cell membranes by radioligand binding assay; parameters: species or system HEK293
[13] = molecular target: 5-hydroxytryptamine receptor 6 (Homo sapiens, UniProt P50406); assay: Displacement of [3H]LSD from human recombinant 5-HT6 receptor expressed in HEK cell membranes by radioligand binding assay; parameters: species or system HEK293
[14] = molecular target: 5-hydroxytryptamine receptor 5A (Homo sapiens, UniProt P47898); assay: Displacement of [3H]LSD from human recombinant 5-HT5A receptor expressed in Flp-In CHO cell membranes by radioligand binding assay
[15] = molecular target: 5-hydroxytryptamine receptor 2B (Homo sapiens, UniProt P41595); assay: Displacement of [3H]LSD from human recombinant 5-HT2B receptor expressed in HEK cell membranes by radioligand binding assay; parameters: species or system HEK293
[16] = molecular target: T1, 5-hydroxytryptamine receptor 1A (Homo sapiens, UniProt P08908); assay: Displacement of [3H]Way100635 from human recombinant 5-HT1A receptor expressed in CHO cell membranes by radioligand binding assay
T1 sequence (P08908 whole entry): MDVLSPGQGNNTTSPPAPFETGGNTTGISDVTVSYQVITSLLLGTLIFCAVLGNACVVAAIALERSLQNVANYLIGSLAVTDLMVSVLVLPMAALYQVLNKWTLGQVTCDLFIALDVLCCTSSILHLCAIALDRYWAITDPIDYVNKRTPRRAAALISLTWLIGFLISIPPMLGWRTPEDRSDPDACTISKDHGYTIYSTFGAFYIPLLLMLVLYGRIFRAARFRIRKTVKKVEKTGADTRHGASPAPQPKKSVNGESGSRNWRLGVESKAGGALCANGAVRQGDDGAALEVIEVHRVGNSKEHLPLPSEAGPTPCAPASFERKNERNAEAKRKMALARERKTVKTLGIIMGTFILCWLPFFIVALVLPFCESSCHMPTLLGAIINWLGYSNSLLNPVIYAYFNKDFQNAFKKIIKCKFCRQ

[17] = molecular target: 5-hydroxytryptamine receptor 3A (Homo sapiens) (UniProt P46098); assay: Displacement of [3H]GR65630 from human recombinant 5-HT3 receptor expressed in HEKT cell membranes by radioligand binding assay; conditions: concentration not given here
[18] = molecular target: Alpha-1A adrenergic receptor (Homo sapiens) (UniProt P35348); assay: Displacement of [3H]prazosin from human recombinant adrenergic alpha1A receptor by radioligand binding assay; conditions: concentration not given here
[19] = molecular target: Alpha-1D adrenergic receptor (Homo sapiens) (UniProt P25100); assay: Displacement of [3H]prazosin from human recombinant adrenergic alpha1D receptor by radioligand binding assay; conditions: concentration not given here
[20] = molecular target: Alpha-2B adrenergic receptor (Homo sapiens) (UniProt P18089); assay: Displacement of [3H]rauwolscine from human recombinant adrenergic alpha2B receptor expressed in HEKT cell membranes by radioligand binding assay; conditions: concentration not given here
Rattus norvegicus [21] = species: Rattus norvegicus; assay: Displacement of [3H]flunitrazepam from rat brain benzodiazepine receptor by radioligand binding assay; conditions: concentration not given here
[22] = molecular target: D(2) dopamine receptor (Homo sapiens) (UniProt P14416); assay: Displacement of [3H]N-methylspiperone from human recombinant dopamine D2 receptor expressed in fibroblasts cell membranes by radioligand binding assay; conditions: Fibroblast, concentration not given here
[23] = molecular target: D(4) dopamine receptor (Homo sapiens) (UniProt P21917); assay: Displacement of [3H]N-methylspiperone from human recombinant dopamine D4 receptor by radioligand binding assay; conditions: concentration not given here
[24] = molecular target: D(1B) dopamine receptor (Homo sapiens) (UniProt P21918); assay: Displacement of [3H]SCH23390 from human recombinant dopamine D5 receptor expressed in HEKT cell membranes by radioligand binding assay; conditions: concentration not given here
[25] = molecular target: Delta-type opioid receptor (Homo sapiens) (UniProt P41143); assay: Displacement of [3H]DADLE from human recombinant DOR expressed in HEK cell membranes by radioligand binding assay; conditions: HEK293, concentration not given here
Rattus norvegicus [26] = species: Rattus norvegicus; assay: Displacement of [3H]muscimol from rat brain GABAA receptor by radioligand binding assay; conditions: concentration not given here
[27] = molecular target: Histamine H1 receptor (Homo sapiens) (UniProt P35367); assay: Displacement of [3H]pyrilamine from human recombinant histamine H1 receptor expressed in HEK cell membranes by radioligand binding assay; conditions: HEK293, concentration not given here
[28] = molecular target: Histamine H3 receptor (Homo sapiens) (UniProt Q9Y5N1); assay: Displacement of [3H]alpha-methylhistamine from human recombinant histamine H3 receptor expressed in HEKFlp-In cell membranes by radioligand binding assay; conditions: concentration not given here
[29] = molecular target: Histamine H4 receptor (Homo sapiens) (UniProt Q9H3N8); assay: Displacement of [3H]histamine from human recombinant histamine H4 receptor by radioligand binding assay; conditions: concentration not given here
[30] = molecular target: Kappa-type opioid receptor (Homo sapiens) (UniProt P41145); assay: Displacement of [3H]U69593 from human recombinant KOR expressed in HEK cell membranes by radioligand binding assay; conditions: HEK293, concentration not given here
[31] = molecular target: Muscarinic acetylcholine receptor M1 (Homo sapiens) (UniProt P11229); assay: Displacement of [3H]QNB/[3H]]NMS from human recombinant muscarinic M1 receptor expressed in CHO cell membranes by radioligand binding assay; conditions: concentration not given here
[32] = molecular target: Muscarinic acetylcholine receptor M2 (Homo sapiens) (UniProt P08172); assay: Displacement of [3H]QNB/[3H]]NMS from human recombinant muscarinic M2 receptor expressed in CHO cell membranes by radioligand binding assay; conditions: concentration not given here
[33] = molecular target: Muscarinic acetylcholine receptor M3 (Homo sapiens) (UniProt P20309); assay: Displacement of [3H]QNB/[3H]]NMS from human recombinant muscarinic M3 receptor expressed in CHO cell membranes by radioligand binding assay; conditions: concentration not given here
[34] = molecular target: Muscarinic acetylcholine receptor M4 (Homo sapiens) (UniProt P08173); assay: Displacement of [3H]QNB/[3H]]NMS from human recombinant muscarinic M4 receptor expressed in CHO cell membranes by radioligand binding assay; conditions: concentration not given here
[35] = molecular target: Muscarinic acetylcholine receptor M5 (Homo sapiens) (UniProt P08912); assay: Displacement of [3H]QNB/[3H]]NMS from human recombinant muscarinic M5 receptor expressed in CHO cell membranes by radioligand binding assay; conditions: concentration not given here

Sequence of 5-hydroxytryptamine receptor 2C (P28335 whole entry): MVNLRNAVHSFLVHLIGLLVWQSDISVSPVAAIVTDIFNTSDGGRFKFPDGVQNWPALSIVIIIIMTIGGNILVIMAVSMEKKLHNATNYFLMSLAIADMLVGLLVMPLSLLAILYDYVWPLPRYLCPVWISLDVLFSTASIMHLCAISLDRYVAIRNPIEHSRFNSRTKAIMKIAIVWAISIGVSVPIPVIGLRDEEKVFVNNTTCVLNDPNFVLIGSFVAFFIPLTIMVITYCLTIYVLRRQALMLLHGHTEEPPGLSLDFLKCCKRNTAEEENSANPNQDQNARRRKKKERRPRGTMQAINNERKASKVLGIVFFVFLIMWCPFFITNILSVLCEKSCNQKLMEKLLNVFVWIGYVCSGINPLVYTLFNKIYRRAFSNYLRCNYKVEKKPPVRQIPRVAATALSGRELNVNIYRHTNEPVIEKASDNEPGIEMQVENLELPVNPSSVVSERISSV
Sequence of D(1A) dopamine receptor (P21728 whole entry): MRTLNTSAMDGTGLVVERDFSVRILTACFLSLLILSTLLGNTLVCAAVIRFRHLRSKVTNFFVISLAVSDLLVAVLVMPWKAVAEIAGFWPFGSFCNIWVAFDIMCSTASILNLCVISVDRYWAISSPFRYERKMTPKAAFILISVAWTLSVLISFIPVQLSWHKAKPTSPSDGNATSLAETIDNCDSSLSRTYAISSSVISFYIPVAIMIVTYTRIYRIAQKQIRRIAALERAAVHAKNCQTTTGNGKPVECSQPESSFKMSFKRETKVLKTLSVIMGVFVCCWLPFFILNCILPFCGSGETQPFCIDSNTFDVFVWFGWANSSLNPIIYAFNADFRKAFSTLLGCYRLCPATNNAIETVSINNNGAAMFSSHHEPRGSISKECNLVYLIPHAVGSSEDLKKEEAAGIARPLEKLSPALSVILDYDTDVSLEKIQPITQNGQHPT
Sequence of Sodium-dependent serotonin transporter (P31645 whole entry): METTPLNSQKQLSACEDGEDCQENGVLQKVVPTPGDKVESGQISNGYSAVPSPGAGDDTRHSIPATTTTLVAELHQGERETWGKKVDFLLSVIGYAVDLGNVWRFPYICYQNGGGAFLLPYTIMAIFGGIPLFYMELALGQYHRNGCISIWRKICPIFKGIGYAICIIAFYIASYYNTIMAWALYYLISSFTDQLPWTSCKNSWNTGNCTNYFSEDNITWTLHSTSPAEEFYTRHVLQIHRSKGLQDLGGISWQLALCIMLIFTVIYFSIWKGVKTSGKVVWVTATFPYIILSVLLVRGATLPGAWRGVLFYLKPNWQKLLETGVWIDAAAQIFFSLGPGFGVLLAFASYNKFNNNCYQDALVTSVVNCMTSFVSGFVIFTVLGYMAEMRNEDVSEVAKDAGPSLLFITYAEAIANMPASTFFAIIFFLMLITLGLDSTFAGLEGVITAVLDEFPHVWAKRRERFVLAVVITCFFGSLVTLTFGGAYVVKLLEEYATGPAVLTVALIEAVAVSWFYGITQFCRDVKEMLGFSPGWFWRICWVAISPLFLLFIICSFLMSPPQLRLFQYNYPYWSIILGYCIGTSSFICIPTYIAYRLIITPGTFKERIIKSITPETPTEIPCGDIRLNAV
Sequence of Kappa-type opioid receptor (Homo sapiens) (P41145 whole entry): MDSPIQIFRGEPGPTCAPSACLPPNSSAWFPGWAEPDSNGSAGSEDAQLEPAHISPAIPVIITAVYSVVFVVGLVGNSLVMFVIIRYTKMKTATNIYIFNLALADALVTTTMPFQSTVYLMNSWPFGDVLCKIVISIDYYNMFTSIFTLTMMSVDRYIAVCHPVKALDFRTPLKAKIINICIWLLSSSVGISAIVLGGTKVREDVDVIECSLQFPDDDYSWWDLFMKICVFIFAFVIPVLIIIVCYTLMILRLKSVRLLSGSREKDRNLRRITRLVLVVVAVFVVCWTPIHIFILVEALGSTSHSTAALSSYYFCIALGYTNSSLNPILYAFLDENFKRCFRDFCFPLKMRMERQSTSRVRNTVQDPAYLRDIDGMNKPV
Sequence of Sigma non-opioid intracellular receptor 1 (Cavia porcellus) (Q60492 whole entry): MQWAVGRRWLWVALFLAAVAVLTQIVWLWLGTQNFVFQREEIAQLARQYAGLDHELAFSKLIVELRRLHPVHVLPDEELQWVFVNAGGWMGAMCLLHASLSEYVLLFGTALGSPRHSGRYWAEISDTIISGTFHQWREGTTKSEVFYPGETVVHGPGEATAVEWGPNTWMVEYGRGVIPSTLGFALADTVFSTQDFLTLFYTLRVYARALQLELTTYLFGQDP
Sequence of Alpha-2B adrenergic receptor (Homo sapiens) (P18089 whole entry): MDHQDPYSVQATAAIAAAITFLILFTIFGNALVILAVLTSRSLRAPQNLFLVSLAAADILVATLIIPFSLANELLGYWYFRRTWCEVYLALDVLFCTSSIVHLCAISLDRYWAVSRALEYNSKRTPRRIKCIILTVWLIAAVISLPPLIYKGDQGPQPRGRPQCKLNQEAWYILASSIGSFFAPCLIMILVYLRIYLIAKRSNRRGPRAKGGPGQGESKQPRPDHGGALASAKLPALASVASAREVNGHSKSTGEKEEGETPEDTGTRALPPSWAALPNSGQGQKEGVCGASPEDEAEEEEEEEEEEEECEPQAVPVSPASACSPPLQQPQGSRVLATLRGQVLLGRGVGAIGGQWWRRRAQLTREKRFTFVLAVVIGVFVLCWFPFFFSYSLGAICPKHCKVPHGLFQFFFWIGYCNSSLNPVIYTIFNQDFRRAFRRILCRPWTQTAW
Sequence of 5-hydroxytryptamine receptor 5A (P47898 whole entry): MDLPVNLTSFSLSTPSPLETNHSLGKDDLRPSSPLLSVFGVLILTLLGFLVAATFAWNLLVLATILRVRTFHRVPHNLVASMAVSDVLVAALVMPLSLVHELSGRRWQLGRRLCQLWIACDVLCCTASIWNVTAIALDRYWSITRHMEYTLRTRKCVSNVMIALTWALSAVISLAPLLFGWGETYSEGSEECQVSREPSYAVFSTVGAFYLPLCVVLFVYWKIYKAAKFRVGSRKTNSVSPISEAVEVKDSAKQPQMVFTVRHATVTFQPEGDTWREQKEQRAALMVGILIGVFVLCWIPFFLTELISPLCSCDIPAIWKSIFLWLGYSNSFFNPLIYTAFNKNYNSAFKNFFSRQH
Sequence of Alpha-1B adrenergic receptor (P35368 whole entry): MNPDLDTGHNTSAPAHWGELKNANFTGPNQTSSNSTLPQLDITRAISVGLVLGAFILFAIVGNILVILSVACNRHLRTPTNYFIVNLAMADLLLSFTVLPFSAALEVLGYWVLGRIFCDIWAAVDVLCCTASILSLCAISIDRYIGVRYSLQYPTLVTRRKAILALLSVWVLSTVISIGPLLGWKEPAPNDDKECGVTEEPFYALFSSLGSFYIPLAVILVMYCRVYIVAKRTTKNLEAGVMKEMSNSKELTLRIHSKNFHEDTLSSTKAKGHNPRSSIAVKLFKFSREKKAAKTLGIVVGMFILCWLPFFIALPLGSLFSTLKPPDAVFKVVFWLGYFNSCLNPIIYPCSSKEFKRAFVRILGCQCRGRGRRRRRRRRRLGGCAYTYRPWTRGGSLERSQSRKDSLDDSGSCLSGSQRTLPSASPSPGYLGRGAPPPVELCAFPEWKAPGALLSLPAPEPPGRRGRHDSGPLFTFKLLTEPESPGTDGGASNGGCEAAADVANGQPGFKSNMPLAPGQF
Sequence of Muscarinic acetylcholine receptor M4 (Homo sapiens) (P08173 whole entry): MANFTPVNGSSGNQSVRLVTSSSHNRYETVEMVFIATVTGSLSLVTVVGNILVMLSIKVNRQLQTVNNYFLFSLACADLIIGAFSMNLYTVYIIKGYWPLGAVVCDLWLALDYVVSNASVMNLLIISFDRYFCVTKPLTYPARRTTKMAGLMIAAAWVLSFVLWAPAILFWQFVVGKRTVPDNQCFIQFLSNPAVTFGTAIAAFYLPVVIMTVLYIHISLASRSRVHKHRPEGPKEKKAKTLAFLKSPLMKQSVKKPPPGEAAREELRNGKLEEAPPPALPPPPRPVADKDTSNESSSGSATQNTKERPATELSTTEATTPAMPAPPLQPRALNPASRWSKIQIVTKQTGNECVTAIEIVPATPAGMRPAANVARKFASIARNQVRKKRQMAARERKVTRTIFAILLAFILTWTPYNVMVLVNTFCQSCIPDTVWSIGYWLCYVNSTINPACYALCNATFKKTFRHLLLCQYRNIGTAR
Sequence of D(4) dopamine receptor (Homo sapiens) (P21917 whole entry): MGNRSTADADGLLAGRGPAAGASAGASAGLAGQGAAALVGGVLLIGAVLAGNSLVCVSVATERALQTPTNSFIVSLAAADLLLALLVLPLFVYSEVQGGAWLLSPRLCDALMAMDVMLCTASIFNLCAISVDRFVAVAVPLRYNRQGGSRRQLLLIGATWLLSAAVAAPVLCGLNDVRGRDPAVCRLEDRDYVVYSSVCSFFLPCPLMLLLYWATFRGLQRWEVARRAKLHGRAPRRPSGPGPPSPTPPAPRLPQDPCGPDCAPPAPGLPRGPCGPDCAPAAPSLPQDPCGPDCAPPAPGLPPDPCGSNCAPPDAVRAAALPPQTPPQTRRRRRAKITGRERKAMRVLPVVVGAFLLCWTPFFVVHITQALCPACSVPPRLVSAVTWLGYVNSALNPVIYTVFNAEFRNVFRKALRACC
Sequence of 5-hydroxytryptamine receptor 3A (Homo sapiens) (P46098 whole entry): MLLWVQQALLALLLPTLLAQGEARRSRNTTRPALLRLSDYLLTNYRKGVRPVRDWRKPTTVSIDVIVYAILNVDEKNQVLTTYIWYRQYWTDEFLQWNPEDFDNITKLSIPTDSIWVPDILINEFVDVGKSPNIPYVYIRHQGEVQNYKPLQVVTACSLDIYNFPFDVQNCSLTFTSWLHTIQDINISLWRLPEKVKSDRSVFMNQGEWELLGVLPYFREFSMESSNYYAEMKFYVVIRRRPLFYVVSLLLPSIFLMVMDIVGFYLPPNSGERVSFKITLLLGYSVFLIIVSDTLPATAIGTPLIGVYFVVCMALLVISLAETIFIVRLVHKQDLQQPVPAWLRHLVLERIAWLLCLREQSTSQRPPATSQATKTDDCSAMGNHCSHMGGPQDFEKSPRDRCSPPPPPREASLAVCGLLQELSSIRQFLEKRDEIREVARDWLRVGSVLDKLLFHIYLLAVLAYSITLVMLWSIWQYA

Compound: COc1cc2c(cc1O)C[C@H]1c3c(cc(OC)c(OC)c3-2)CCN1C
- inhibition [1]: < 50%
- inhibition [2]: < 50%
- inhibition [3]: < 50%
- inhibition (Sigma 2 receptor): < 50%
- Ki [4]: > 950 nM
- Ki [5]: > 950 nM
- Ki [6]: > 950 nM
- Ki [7]: > 950 nM
- Ki (D(3) dopamine receptor): > 950 nM
- Ki [8]: > 950 nM
- Ki [9]: > 950 nM
- Ki [10]: > 950 nM
- Ratio Ki (Homo sapiens): 16
- inhibition [11]: < 50%
- Ki (D(1A) dopamine receptor): 373 nM
- Ki [12]: 20 nM
- Ki [13]: 306 nM
- Ki [14]: 566 nM
- Ki [15]: 323 nM
- Ki [16]: 314 nM
- inhibition [17]: < 50%
- inhibition [18]: < 50%
- inhibition [19]: < 50%
- inhibition [20]: < 50%
- inhibition (Rattus norvegicus [21]): < 50%
- inhibition [22]: < 50%
- inhibition [23]: < 50%
- inhibition [24]: < 50%
- inhibition [25]: < 50%
- inhibition (Rattus norvegicus [26]): < 50%
- inhibition [27]: < 50%
- inhibition [28]: < 50%
- inhibition [29]: < 50%
- inhibition [30]: < 50%
- inhibition [31]: < 50%
- inhibition [32]: < 50%
- inhibition [33]: < 50%
- inhibition [34]: < 50%
- inhibition [35]: < 50%
